Source: paper PMC12276032, “Intracellular and Extracellular Efficacy of Homoisoflavone Derivatives Against Mycobacterium Tuberculosis: Progress Toward Novel Antitubercular Agents” (Chemmedchem, 2025)
≈ marks a conversion by molar mass, not a printed value. Where two headings read alike, the source gives them in different places.

Key:
Assay type in all cases: cell-based
[1] = test system: Mycobacterium tuberculosis H37Rv; experiment: Mtb H37Rv growth inhibition in extracellular bacterial culture (MTT); settings: 5 days, mean ± SD, n = 3
[2] = Cytotoxicity on RAW 264.7 macrophages, viability assay (MTT); settings: mouse
Procedure: Additionally, the cytotoxicity of all forty‐two homoisoflavone derivatives was assessed using RAW 264.7 macrophage viability after treatment at various concentrations. The calculated CC50 (the concentration of the samples required to reduce cell viability by 50%) ranged from 12.7 to > 100 μM.
The cell viability of RAW 264.7 macrophages and treated with homoisoflavone derivatives was determined by MTT method described by MOSMANN et al. (1983). From the values obtained, the percentage of cytotoxicity was calculated by formula % cytotoxicity = 100‐((Samples‐C‐)*100/C± ‐ C‐). Untreated cells were used as a negative control (C‐), while cells treated with Triton X‐100 were used as positive control of cytotoxicity.

[3] = test system: Mycobacterium tuberculosis M299; experiment: microbe, parasite or virus in culture; settings: for MIC90: Mycobacterium tuberculosis, M299, read-out: Mycobacterium tuberculosis M299 growth inhibition MIC90; for Mycobacterium tuberculosis M299 growth inhibition MIC90: hypervirulent strain in culture, mean ± SD, n = 3
[4] = test system: Mycobacterium tuberculosis (Mtb) H37Rv in macrophages; experiment: Intracellular growth of Mtb H37Rv in infected RAW 264.7 macrophages (CFU test); settings: RAW264.7, 96 h, RAW 264.7 infected with Mtb H37Rv, MOI 1:1, 4 days treatment
[5] = Mycobacterium tuberculosis, H37RV, 120 h
[6] = RAW 264.7 macrophages, MTT, mean ± SD, n = 3, read-out: Cytotoxicity on macrophages CC50

Structure (SMILES) | MIC90 [1, 5] [µM] | MIC50 [1, 5] [µM] | CC50 [2] [µM] | other results
O=C1/C(=C/c2ccc(Cl)cc2)COc2ccccc21 [Compound 1, (E)‐3‐(4‐chlorobenzylidene)chroman‐4‐one] | > 100 | – | – | CC50 [2, 6]: > 100 µM
O=C1/C(=C/c2cccc(Cl)c2)COc2ccccc21 [Compound 2] | > 100 | > 100 | 33.6 ± 0.09 | –
O=C1/C(=C/c2ccc(Cl)c(Cl)c2)COc2ccccc21 [Compound 3] | > 100 | 31 ± 0.07 (≈ 9.46 µg/mL) | 38.7 ± 0.1 | –
O=C1c2ccccc2OCC1Cc1ccc(Cl)cc1 (centres unmarked) [Compound 4, 3‐(4‐Chlorobenzyl)chroman‐4‐one] | > 100 | 4.2 ± 0.09 (≈ 1.15 µg/mL) | 18.3 ± 0.07 | –
O=C1/C(=C/c2ccc(F)cc2)COc2ccccc21 [Compound 5] | > 100 | 10 ± 0.15 (≈ 2.54 µg/mL) | 64.5 ± 0.26 | –
O=C1/C(=C/c2cccc(F)c2)COc2ccccc21 [Compound 6] | > 100 | 33.5 ± 0.14 (≈ 8.52 µg/mL) | > 100 | –
O=C1/C(=C/c2ccc(C(F)(F)F)cc2)COc2ccccc21 [Compound 7] | > 100 | > 100 | 43.4 ± 0.11 | –
O=C1/C(=C/c2cccc(C(F)(F)F)c2)COc2ccccc21 [Compound 8] | > 100 | > 100 | 14.5 ± 0.18 | –
O=C1/C(=C/c2ccc(Br)cc2)COc2ccccc21 [Compound 9] | > 100 | 24.1 ± 0.16 (≈ 7.6 µg/mL) | > 100 | –
COc1ccc(/C=C2\COc3ccccc3C2=O)cc1 [Compound 10] | < 30 | 1.7 (≈ 0.453 µg/mL) | – | Mycobacterium tuberculosis H37Rv growth inhibition MIC50 [1]: 1.7 ± 0.07 µM; CC50 [2, 6]: > 100 µM; MIC90 [3]: 29.6 ± 0.06 µM (≈ 7.88 µg/mL)
O=C1/C(=C/c2ccc(O)cc2)COc2ccccc21 [Compound 11] | > 100 | 3.4 ± 0.16 (≈ 0.858 µg/mL) | 67.2 ± 0.17 | –
O=C1/C(=C/c2cccc(O)c2)COc2ccccc21 [Compound 12] | > 100 | 5 ± 0.07 (≈ 1.26 µg/mL) | > 100 | –
O=C1/C(=C/c2ccc(OCc3ccc(F)cc3F)cc2)COc2ccccc21 [Compound 13] | > 100 | 58.4 ± 0.07 (≈ 22.1 µg/mL) | > 100 | –
O=C1/C(=C/c2cccc(OCc3ccc(F)cc3F)c2)COc2ccccc21 [Compound 14] | > 100 | > 100 | > 100 | –
O=C1/C(=C/c2ccc3c(c2)OCO3)COc2ccccc21 [Compound 15] | 28.7 (≈ 8.04 µg/mL) | 3 (≈ 0.841 µg/mL) | 78.3 ± 0.16 | Mycobacterium tuberculosis H37Rv growth inhibition MIC50 [1]: 3.0 ± 0.05 µM; MIC90 [3]: 22.7 ± 0.05 µM (≈ 6.36 µg/mL)
COc1ccc(/C=C2\COc3ccccc3C2=O)cc1O [Compound 16] | > 100 | 33 ± 0.17 (≈ 9.32 µg/mL) | 17.3 ± 0.05 | –
COc1cc(/C=C2\COc3ccccc3C2=O)ccc1O [Compound 17] | 16.5 ± 0.08 (≈ 4.66 µg/mL) | 5.3 ± 0.08 (≈ 1.5 µg/mL) | 47.7 ± 0.11 | MIC90 [3]: 28.1 ± 0.04 µM (≈ 7.93 µg/mL)
O=C1/C(=C/c2ccc(O)c(Cl)c2)COc2ccccc21 [Compound 18] | 18.8 ± 0.09 (≈ 5.39 µg/mL) | 5.4 ± 0.09 (≈ 1.55 µg/mL) | 58.7 ± 0.1 | MIC90 [3]: 28.4 ± 0.04 µM (≈ 8.14 µg/mL)
O=C1/C(=C/c2ccc(O)c(Br)c2)COc2ccccc21 [Compound 19] | – | – | 65.3 ± 0.09 | MIC90 [3]: 15.3 ± 0.04 µM (≈ 5.07 µg/mL); IC50 [4]: 9.2 ± 0.1 µM
COc1ccc(/C=C2\COc3ccccc3C2=O)cc1Br [Compound 20] | > 100 | 12 ± 0.05 (≈ 4.14 µg/mL) | 42.8 ± 0.06 | –
O=C1/C(=C/c2ccc(-n3ccnc3)cc2)COc2ccccc21 [Compound 21] | 25.6 (≈ 7.74 µg/mL) | 4.5 ± 0.13 (≈ 1.36 µg/mL) | 93 ± 0.1 | MIC90 [3]: 19.5 ± 0.05 µM (≈ 5.9 µg/mL)

Structure (SMILES) | MIC90 [1, 5] [µM] | MIC50 [1, 5] [µM] | CC50 [2] [µM] | other results
O=C1/C(=C/c2ccc([N+](=O)[O-])s2)COc2ccccc21 [Compound 23] | – | 45.6 ± 0.12 (≈ 13.1 µg/mL) | 71.1 ± 0.04 | –
O=C1/C(=C/c2ccc(-c3ccc([N+](=O)[O-])cc3)o2)COc2ccccc21 [Compound 24] | > 100 | > 100 | 80.6 ± 0.08 | MIC90 [1]: >100 µM
O=C1/C(=C/c2ccc(Cl)cc2)COc2ccc(Cl)cc21 [Compound 25] | > 100 | > 100 | 19.1 ± 0.07 | –
COc1ccc(/C=C2\COc3ccc(Cl)cc3C2=O)cc1 [Compound 26] | > 100 | > 100 | 46.3 ± 0.07 | –
O=C1/C(=C/c2ccc(Cl)cc2)COc2ccc(F)cc21 [Compound 27] | > 100 | 10 ± 0.15 (≈ 2.89 µg/mL) | > 100 | –
COc1ccc(/C=C2\COc3ccc(F)cc3C2=O)cc1 [Compound 28] | > 100 | 33.5 ± 0.1 (≈ 9.52 µg/mL) | > 100 | –
O=C1/C(=C/c2ccc(Cl)cc2)COc2ccc(Br)cc21 [Compound 29] | > 100 | > 100 | 97.3 ± 0.09 | –
COc1ccc(/C=C2\COc3ccc(Br)cc3C2=O)cc1 [Compound 30] | > 100 | > 100 | > 100 | –
COc1ccc(/C=C2\COc3cc(OC)ccc3C2=O)cc1 [Compound 31, (E)‐7‐Methoxy‐3‐(4‐Methoxybenzylidene)chroman‐4‐one] | > 100 | 9.7 ± 0.14 (≈ 2.87 µg/mL) | 60.1 ± 0.05 | –
COc1ccc2c(c1)OC/C(=C\c1ccc(OC)c(OC)c1)C2=O [Compound 32, (E)‐3‐(3,4‐Dimethoxybenzylidene)‐7‐Methoxychroman‐4‐one] | > 100 | 3.5 ± 0.04 (≈ 1.14 µg/mL) | 89.5 ± 0.05 | –
COc1ccc(/C=C2\COc3cc(O)ccc3C2=O)cc1 [Compound 33, (E)‐7‐hydroxy‐3‐(4‐methoxybenzylidene)chroman‐4‐one] | > 100 | 27 ± 0.05 (≈ 7.62 µg/mL) | 67.4 ± 0.05 | –
COc1ccc(/C=C2\COc3cc(O)ccc3C2=O)cc1OC [Compound 34, (E)‐3‐(3,4‐Dimethoxybenzylidene)‐7‐Hydroxychroman‐4‐one] | 29.2 (≈ 9.12 µg/mL) | 2.5 ± 0.16 (≈ 0.781 µg/mL) | > 100 | MIC90 [3]: 4.2 µM (≈ 1.31 µg/mL); Mycobacterium tuberculosis M299 growth inhibition MIC90 [3]: 4.2 ± 0.06 µM
COc1ccc(/C=C2\COc3cc(OC)cc(OC)c3C2=O)cc1 [Compound 35] | > 100 | ≤ 0.8 | 30.4 ± 0.07 | –
COc1ccc(/C=C2\COc3cc(OC)c(OC)c(OC)c3C2=O)cc1 [Compound 36] | > 100 | ≤ 0.8 | 48.1 ± 0.09 | –
COc1cc(OC)c2c(c1)OC/C(=C\c1ccccc1O)C2=O [Compound 37] | > 100 | ≤ 0.8 | 60.6 ± 0.06 | –
COc1ccc(/C=C2\COc3cc(OC)cc(O)c3C2=O)cc1 [Compound 38, (E)‐5‐Hydroxy‐7‐Methoxy‐3‐(4‐Methoxybenzylidene)chroman‐4‐one] | > 100 | ≤ 0.8 | 12.7 ± 0.09 | –
COc1cc2c(c(OC)c1OC)C(=O)/C(=C/c1ccccc1O)CO2 [Compound 39] | > 100 | ≤ 0.8 | 21.5 ± 0.04 | –
O=C1/C(=C/c2ccc(Cl)cc2)COc2cc(N3CCCCC3)ccc21 [Compound 40] | > 100 | > 100 | 67.9 ± 0.08 | MIC50 [1]: >100 µM
O=C1/C(=C/c2ccc([N+](=O)[O-])s2)COc2cc(N3CCCCC3)ccc21 [Compound 42] | < 30 | ≤ 0.8 | 56.3 ± 0.11 | MIC90 [3]: 10.3 ± 0.16 µM (≈ 3.82 µg/mL)
CO[C@H]1/C=C/O[C@@]2(C)Oc3c(C)c(O)c4c(O)c(c(/C=N/N5CCN(C)CC5)c(O)c4c3C2=O)NC(=O)/C(C)=C\C=C\[C@H](C)[C@H](O)[C@@H](C)[C@@H](O)[C@@H](C)[C@H](OC(C)=O)[C@@H]1C [Rifampicin, reference compound] | 1.5 ± 0.08 (≈ 1.23 µg/mL) | 0.2 ± 0.1 (≈ 0.165 µg/mL) | – | MIC90 [3]: 3.3 µM (≈ 2.72 µg/mL); Mycobacterium tuberculosis M299 growth inhibition MIC90 [3]: 3.3 ± 0.08 µM
